Here are results for seven compounds from PubChem BioAssay (NCI).

Test systems include OVCAR-8 ovarian; NCI-H522 lung; OVCAR-4 ovarian; SK-OV-3 ovarian; MALME-3M melanoma; COLO 205 colon; HT29 colon; HL-60(TB) leukemia; K-562 leukemia; NCI/ADR-RES ovarian.
Assay in all cases: growth of human tumour cells (NCI), 48 h

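How tested: cells in 96-well plates exposed to compound for 48 hours at five concentrations. The concentration for 50% growth inhibition is given as GI50. TGI: total growth inhibition.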

For `Cc1cccc(NC(=O)c2cccc([N+](=O)[O-])c2O)c1C`, the TGI is above 100 µM with OVCAR-8 ovarian; 58 µM with NCI-H522 lung; above 100 µM in the test on OVCAR-4 ovarian; above 81.9 µM in the test with SK-OV-3 ovarian; above 84.2 µM in the test on MALME-3M melanoma; 32.9 µM with COLO 205 colon. The TGI in the test with HT29 colon is above 100 µM; in the test with HL-60(TB) leukemia, 22.1 µM; in the test with K-562 leukemia, above 31.6 µM; in the test with NCI/ADR-RES ovarian, above 100 µM.

`CCNC(=O)O[C@H]1CN[C@H](C#Cc2cc3ncnc(Nc4ccc(OCc5cccc(F)c5)c(Cl)c4)c3s2)C1`: the GI50 was 6.25 µM in the test with OVCAR-8 ovarian; 0.371 µM with NCI-H522 lung; 9.94 µM with OVCAR-4 ovarian; 0.0299 µM with SK-OV-3 ovarian; 3.99 µM in the test on MALME-3M melanoma; 6.9 µM in the test with COLO 205 colon. The GI50 in the test on HT29 colon was 9.47 µM; with HL-60(TB) leukemia, 5.71 µM; in the test with K-562 leukemia, 9.45 µM; with NCI/ADR-RES ovarian, 6.19 µM. Also, the TGI in the test on OVCAR-8 ovarian is above 25 µM; with NCI-H522 lung, 5.91 µM; in the test with OVCAR-4 ovarian, above 25 µM; in the test on SK-OV-3 ovarian, above 25 µM; in the test on MALME-3M melanoma, 11.7 µM; with COLO 205 colon it was above 17.7 µM. Besides, the TGI is above 25 µM with HT29 colon, above 19.4 µM with HL-60(TB) leukemia, above 25 µM in the test with K-562 leukemia and above 25 µM in the test on NCI/ADR-RES ovarian.

Take `O=C1C(=O)c2cccnc2-c2ncccc21`: the GI50 was 0.166 µM in the test with OVCAR-8 ovarian; 0.126 µM with NCI-H522 lung; 0.139 µM in the test with OVCAR-4 ovarian; 1.16 µM in the test with SK-OV-3 ovarian; 0.215 µM in the test on MALME-3M melanoma; 1.03 µM in the test with COLO 205 colon. In addition, the GI50 was 1.04 µM with HT29 colon, 0.18 µM in the test with HL-60(TB) leukemia, 0.211 µM with K-562 leukemia and 0.0898 µM in the test with NCI/ADR-RES ovarian. The TGI in the test on OVCAR-8 ovarian is 0.727 µM; in the test on NCI-H522 lung, 0.332 µM; in the test with OVCAR-4 ovarian, 0.268 µM; with SK-OV-3 ovarian, 2.98 µM; with MALME-3M melanoma, 0.769 µM; in the test with COLO 205 colon, 2.51 µM. Also, the TGI in the test on HT29 colon stood at 2.33 µM; in the test with HL-60(TB) leukemia, 0.443 µM; in the test on K-562 leukemia, 0.848 µM; in the test on NCI/ADR-RES ovarian it was 0.281 µM.

Take `C=C1CC2(OC1=O)C(=O)Nc1ccccc12` (stereo not given): the GI50 was 2.91 µM in the test with OVCAR-8 ovarian; 0.542 µM in the test on NCI-H522 lung; 1.5 µM in the test with OVCAR-4 ovarian; 26.7 µM in the test on SK-OV-3 ovarian; 1.24 µM with MALME-3M melanoma; 0.885 µM in the test on COLO 205 colon. The GI50 in the test with HT29 colon was 3.03 µM; in the test on HL-60(TB) leukemia it was 1.73 µM; in the test on K-562 leukemia, 1.88 µM; with NCI/ADR-RES ovarian it was 2.86 µM. For the same compound, the TGI in the test on OVCAR-8 ovarian was 11 µM; with NCI-H522 lung, 2.03 µM; with OVCAR-4 ovarian, 3.37 µM; with SK-OV-3 ovarian, above 100 µM; with MALME-3M melanoma, 2.64 µM; in the test with COLO 205 colon, 2.41 µM. Moreover, the TGI in the test with HT29 colon is 11 µM; in the test on HL-60(TB) leukemia, 3.85 µM; with K-562 leukemia it was 10 µM; in the test with NCI/ADR-RES ovarian, 11.2 µM.

With `CN(C)CCNC(=O)c1ccc(NC(=O)c2nc([N+](=O)[O-])cn2C)cc1`, the TGI in the test on OVCAR-8 ovarian, in the test with NCI-H522 lung, with OVCAR-4 ovarian, in the test with SK-OV-3 ovarian, with MALME-3M melanoma and in the test with COLO 205 colon was above 100 µM throughout. Moreover, the TGI in the test with HT29 colon, with HL-60(TB) leukemia, with K-562 leukemia and with NCI/ADR-RES ovarian was above 100 µM throughout.

As to `O=C1c2ccccc2-c2c1c1ccccc1c(=O)n2CCCn1ccnc1`, the GI50 in the test on OVCAR-8 ovarian is 0.87 µM; in the test on NCI-H522 lung, 2.14 µM; in the test on OVCAR-4 ovarian, 2.29 µM; in the test on SK-OV-3 ovarian, 6.68 µM; with MALME-3M melanoma, 2.45 µM; with COLO 205 colon it was 5.41 µM. Moreover, the GI50 in the test on HT29 colon is 1.22 µM; in the test with HL-60(TB) leukemia, 0.2 µM; in the test on K-562 leukemia, 1.45 µM; in the test with NCI/ADR-RES ovarian, 1.81 µM. Besides, the TGI in the test with OVCAR-8 ovarian was 2.39 µM; with NCI-H522 lung it was above 100 µM; in the test with OVCAR-4 ovarian, above 100 µM; in the test with SK-OV-3 ovarian it was above 100 µM; in the test with MALME-3M melanoma, 5.75 µM; in the test with COLO 205 colon, above 100 µM. Besides, the TGI amounted to 6.27 µM in the test with HT29 colon, 2.18 µM in the test with HL-60(TB) leukemia, 4.64 µM with K-562 leukemia and 6.09 µM with NCI/ADR-RES ovarian.

As for `CN(Cc1cc(C(C)(C)C)cc(Br)c1O)Cc1cc(C(C)(C)C)cc(Br)c1O`, the TGI in the test on OVCAR-8 ovarian came to 15.3 µM; with NCI-H522 lung it was 7.33 µM; with OVCAR-4 ovarian it was 17.8 µM; in the test on SK-OV-3 ovarian, 22.2 µM; with MALME-3M melanoma, 13.7 µM; with COLO 205 colon it was 28.4 µM. The TGI in the test on HT29 colon is 15.9 µM; in the test on HL-60(TB) leukemia, 7.71 µM; in the test with K-562 leukemia it was 14 µM; with NCI/ADR-RES ovarian it was 11.1 µM.
